Assay results from patent publication US9149038B2, “4-amino-6-(heterocyclic)picolinates and 6-amino-2-(heterocyclic)pyrimidine-4-carboxylates and their use as herbicides” (Dow AgroSciences LLC, priority 2013, dated 2015).
Read-outs that look alike come from different tables or passages of the source.

Experiments:
[1] = system: Key Grass and Sedge Weeds as well as Grass Crops; experiment: Post-Emergent Test II: postemergent herbicidal activity, visual rating after 14 d (Table 8); type: in vivo; settings: post-emergence, 336 h; for pest or weed control at 35 g/ha: 35 g ai/ha; for pest or weed control at 70 g/ha: 70 g ai/ha; for pest or weed control at 140 g/ha: 140 g ai/ha
Method in brief: (§1)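 Greenhouse-grown plants at the first or second true leaf stage (7-21 d, ~15 h photoperiod, 23-29° C day) were sprayed with compound in acetone/DMSO-based aqueous spray containing crop oil concentrate and Triton X-155 at 187 L/ha. Injury versus untreated plants was rated visually after 14 d on a 0-100 scale.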

[2] = system: Key Broadleaf Weed and Crop Species; experiment: Post-Emergent Test II: postemergent herbicidal activity, visual rating after 14 d (Table 7); type: in vivo; settings: post-emergence, 336 h; for pest or weed control at 35 g/ha: 35 g ai/ha; for pest or weed control at 70 g/ha: 70 g ai/ha; for pest or weed control at 140 g/ha: 140 g ai/ha
Method in brief: as §1

[3] = barnyardgrass (Echinochloa crus-galli), read-out: Visual Growth Reduction (%) 14 Days After Application, ECHCG
[4] = giant foxtail (Setaria faberi), read-out: Visual Growth Reduction (%) 14 Days After Application, SETFA
[5] = maize, corn (Zea mays), read-out: Visual Growth Reduction (%) 14 Days After Application, ZEAMX
[6] = rice (Oryza sativa), read-out: Visual Growth Reduction (%) 14 Days After Application, ORYSA
[7] = wheat, spring (Triticum aestivum), read-out: Visual Growth Reduction (%) 14 Days After Application, TRZAS
[8] = yellow nutsedge (Cyperus esculentus), read-out: Visual Growth Reduction (%) 14 Days After Application, CYPES
[9] = ABUTH: velvetleaf (Abutilon theophrasti), read-out: Visual Growth Reduction (%) 14 Days After Application ABUTH
[10] = AMARE: redroot pigweed (Amaranthus retroflexus), read-out: Visual Growth Reduction (%) 14 Days After Application AMARE
[11] = BRSNN: oilseed rape, canola (Brassica napus), read-out: Visual Growth Reduction (%) 14 Days After Application BRSNN
[12] = CHEAL: lambsquarters (Chenopodium album), read-out: Visual Growth Reduction (%) 14 Days After Application CHEAL
[13] = EPHHL: wild poinsettia (Euphorbia heterophylla), read-out: Visual Growth Reduction (%) 14 Days After Application EPHHL
[14] = HELAN: sunflower (Helianthus annuus), read-out: Visual Growth Reduction (%) 14 Days After Application HELAN

Row | Compound | pest or weed control at 35 g/ha [1, 3] [%] | pest or weed control at 70 g/ha [1, 3] [%] | pest or weed control at 140 g/ha [1, 3] [%] | pest or weed control at 35 g/ha [1, 4] [%] | pest or weed control at 70 g/ha [1, 4] [%] | pest or weed control at 140 g/ha [1, 4] [%] | pest or weed control at 35 g/ha [1, 5] [%] | pest or weed control at 70 g/ha [1, 5] [%] | pest or weed control at 140 g/ha [1, 5] [%] | pest or weed control at 35 g/ha [1, 6] [%] | pest or weed control at 70 g/ha [1, 6] [%] | pest or weed control at 140 g/ha [1, 6] [%] | pest or weed control at 35 g/ha [1, 7] [%] | pest or weed control at 70 g/ha [1, 7] [%] | pest or weed control at 140 g/ha [1, 7] [%] | pest or weed control at 35 g/ha [1, 8] [%] | pest or weed control at 70 g/ha [1, 8] [%] | pest or weed control at 140 g/ha [1, 8] [%] | pest or weed control at 35 g/ha [2, 9] [%] | pest or weed control at 70 g/ha [2, 9] [%] | other results
1 | COC(=O)c1nc(-c2ccc(Cl)c3c2OC(F)(F)O3)cc(N)c1Cl [Compound 86] | 0 to 29 | 0 to 29 | 0 to 29 | 0 to 29 | 0 to 29 | 0 to 29 | 85 to 94 | 85 to 94 | 95 to 100 | 0 to 29 | 0 to 29 | 0 to 29 | 0 to 29 | 0 to 29 | 0 to 29 | 60 to 74 | 60 to 74 | 60 to 74 | 75 to 84 | 85 to 94 | pest or weed control at 140 g/ha [2, 9]: 85 to 94%; pest or weed control at 35 g/ha [2, 10]: 95 to 100%; pest or weed control at 70 g/ha [2, 10]: 95 to 100%; pest or weed control at 140 g/ha [2, 10]: 95 to 100%; pest or weed control at 35 g/ha [2, 11]: 75 to 84%; pest or weed control at 70 g/ha [2, 11]: 75 to 84%; pest or weed control at 140 g/ha [2, 11]: 85 to 94%; pest or weed control at 35 g/ha [2, 12]: 95 to 100%; pest or weed control at 70 g/ha [2, 12]: 95 to 100%; pest or weed control at 140 g/ha [2, 12]: 95 to 100%; pest or weed control at 35 g/ha [2, 13]: 0 to 29%; pest or weed control at 70 g/ha [2, 13]: 0 to 29%; pest or weed control at 140 g/ha [2, 13]: 0 to 29%; pest or weed control at 35 g/ha [2, 14]: 75 to 84%; pest or weed control at 70 g/ha [2, 14]: 85 to 94%; pest or weed control at 140 g/ha [2, 14]: 85 to 94%
2 | Nc1cc(-c2ccc(Cl)c3c2OC(F)(F)O3)nc(C(=O)O)c1Cl [Compound 87] | 0 to 29 | 0 to 29 | 0 to 29 | 0 to 29 | 0 to 29 | 0 to 29 | 0 to 29 | 0 to 29 | 0 to 29 | 0 to 29 | 0 to 29 | 0 to 29 | 0 to 29 | 0 to 29 | 0 to 29 | 0 to 29 | 0 to 29 | 0 to 29 | 75 to 84 | 85 to 94 | pest or weed control at 140 g/ha [2, 9]: 85 to 94%; pest or weed control at 35 g/ha [2, 10]: 95 to 100%; pest or weed control at 70 g/ha [2, 10]: 95 to 100%; pest or weed control at 140 g/ha [2, 10]: 95 to 100%; pest or weed control at 35 g/ha [2, 11]: 60 to 74%; pest or weed control at 70 g/ha [2, 11]: 75 to 84%; pest or weed control at 140 g/ha [2, 11]: 85 to 94%; pest or weed control at 35 g/ha [2, 12]: 95 to 100%; pest or weed control at 70 g/ha [2, 12]: 95 to 100%; pest or weed control at 140 g/ha [2, 12]: 95 to 100%; pest or weed control at 35 g/ha [2, 13]: 0 to 29%; pest or weed control at 70 g/ha [2, 13]: 0 to 29%; pest or weed control at 140 g/ha [2, 13]: 0 to 29%; pest or weed control at 35 g/ha [2, 14]: 75 to 84%; pest or weed control at 70 g/ha [2, 14]: 75 to 84%; pest or weed control at 140 g/ha [2, 14]: 75 to 84%
3 | COC(=O)c1nc(-c2ccc(F)c3c2OC(F)(F)O3)cc(N)c1Cl [Compound 88] | 0 to 29 | 0 to 29 | 0 to 29 | 0 to 29 | 0 to 29 | 0 to 29 | 0 to 29 | 0 to 29 | 0 to 29 | 0 to 29 | 0 to 29 | 0 to 29 | 0 to 29 | 45 to 59 | 60 to 74 | 30 to 44 | 60 to 74 | 75 to 84 | 60 to 74 | 85 to 94 | pest or weed control at 140 g/ha [2, 9]: 85 to 94%; pest or weed control at 35 g/ha [2, 10]: 95 to 100%; pest or weed control at 70 g/ha [2, 10]: 95 to 100%; pest or weed control at 140 g/ha [2, 10]: 95 to 100%; pest or weed control at 35 g/ha [2, 11]: 60 to 74%; pest or weed control at 70 g/ha [2, 11]: 60 to 74%; pest or weed control at 140 g/ha [2, 11]: 75 to 84%; pest or weed control at 35 g/ha [2, 12]: 85 to 94%; pest or weed control at 70 g/ha [2, 12]: 85 to 94%; pest or weed control at 140 g/ha [2, 12]: 95 to 100%; pest or weed control at 35 g/ha [2, 13]: 0 to 29%; pest or weed control at 70 g/ha [2, 13]: 0 to 29%; pest or weed control at 140 g/ha [2, 13]: 0 to 29%; pest or weed control at 35 g/ha [2, 14]: 30 to 44%; pest or weed control at 70 g/ha [2, 14]: 60 to 74%; pest or weed control at 140 g/ha [2, 14]: 60 to 74%
4 | Nc1cc(-c2ccc(F)c3c2OC(F)(F)O3)nc(C(=O)O)c1Cl [Compound 89] | 0 to 29 | 0 to 29 | 0 to 29 | 0 to 29 | 0 to 29 | 0 to 29 | 0 to 29 | 0 to 29 | 0 to 29 | 0 to 29 | 0 to 29 | 0 to 29 | 0 to 29 | 0 to 29 | 0 to 29 | 0 to 29 | 0 to 29 | 0 to 29 | 0 to 29 | 75 to 84 | pest or weed control at 140 g/ha [2, 9]: 75 to 84%; pest or weed control at 35 g/ha [2, 10]: 95 to 100%; pest or weed control at 70 g/ha [2, 10]: 95 to 100%; pest or weed control at 140 g/ha [2, 10]: 95 to 100%; pest or weed control at 35 g/ha [2, 11]: 85 to 94%; pest or weed control at 70 g/ha [2, 11]: 85 to 94%; pest or weed control at 140 g/ha [2, 11]: 95 to 100%; pest or weed control at 35 g/ha [2, 12]: 95 to 100%; pest or weed control at 70 g/ha [2, 12]: 95 to 100%; pest or weed control at 140 g/ha [2, 12]: 95 to 100%; pest or weed control at 35 g/ha [2, 13]: 0 to 29%; pest or weed control at 70 g/ha [2, 13]: 0 to 29%; pest or weed control at 140 g/ha [2, 13]: 0 to 29%; pest or weed control at 35 g/ha [2, 14]: 60 to 74%; pest or weed control at 70 g/ha [2, 14]: 60 to 74%; pest or weed control at 140 g/ha [2, 14]: 75 to 84%
